Each compound was assayed against human NaV 1.8 (Homo sapiens, UniProt Q9Y5Y9) (assay: E-VIPR assay for detecting and measuring NaV inhibition properties). Settings: E-VIPR assay conducted in the presence of human serum; HEK cells expressing truncated human NaV 1.8; read-out: IC50.
Assay type: cell-based
Outline: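 Membrane-potential (coumarin/oxonol) readout after 10 s of 10 Hz biphasic electrical stimulation on E-VIPR. Compounds: 11-point 3-fold dilutions, […], 0.625% DMSO, 30 min at room temperature, human serum optional. Cells: HEK expressing truncated human NaV1.8 co-transduced with KIR2.1.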

Chain of human NaV 1.8 (Q9Y5Y9 whole entry, looked up, the tested form may be a part): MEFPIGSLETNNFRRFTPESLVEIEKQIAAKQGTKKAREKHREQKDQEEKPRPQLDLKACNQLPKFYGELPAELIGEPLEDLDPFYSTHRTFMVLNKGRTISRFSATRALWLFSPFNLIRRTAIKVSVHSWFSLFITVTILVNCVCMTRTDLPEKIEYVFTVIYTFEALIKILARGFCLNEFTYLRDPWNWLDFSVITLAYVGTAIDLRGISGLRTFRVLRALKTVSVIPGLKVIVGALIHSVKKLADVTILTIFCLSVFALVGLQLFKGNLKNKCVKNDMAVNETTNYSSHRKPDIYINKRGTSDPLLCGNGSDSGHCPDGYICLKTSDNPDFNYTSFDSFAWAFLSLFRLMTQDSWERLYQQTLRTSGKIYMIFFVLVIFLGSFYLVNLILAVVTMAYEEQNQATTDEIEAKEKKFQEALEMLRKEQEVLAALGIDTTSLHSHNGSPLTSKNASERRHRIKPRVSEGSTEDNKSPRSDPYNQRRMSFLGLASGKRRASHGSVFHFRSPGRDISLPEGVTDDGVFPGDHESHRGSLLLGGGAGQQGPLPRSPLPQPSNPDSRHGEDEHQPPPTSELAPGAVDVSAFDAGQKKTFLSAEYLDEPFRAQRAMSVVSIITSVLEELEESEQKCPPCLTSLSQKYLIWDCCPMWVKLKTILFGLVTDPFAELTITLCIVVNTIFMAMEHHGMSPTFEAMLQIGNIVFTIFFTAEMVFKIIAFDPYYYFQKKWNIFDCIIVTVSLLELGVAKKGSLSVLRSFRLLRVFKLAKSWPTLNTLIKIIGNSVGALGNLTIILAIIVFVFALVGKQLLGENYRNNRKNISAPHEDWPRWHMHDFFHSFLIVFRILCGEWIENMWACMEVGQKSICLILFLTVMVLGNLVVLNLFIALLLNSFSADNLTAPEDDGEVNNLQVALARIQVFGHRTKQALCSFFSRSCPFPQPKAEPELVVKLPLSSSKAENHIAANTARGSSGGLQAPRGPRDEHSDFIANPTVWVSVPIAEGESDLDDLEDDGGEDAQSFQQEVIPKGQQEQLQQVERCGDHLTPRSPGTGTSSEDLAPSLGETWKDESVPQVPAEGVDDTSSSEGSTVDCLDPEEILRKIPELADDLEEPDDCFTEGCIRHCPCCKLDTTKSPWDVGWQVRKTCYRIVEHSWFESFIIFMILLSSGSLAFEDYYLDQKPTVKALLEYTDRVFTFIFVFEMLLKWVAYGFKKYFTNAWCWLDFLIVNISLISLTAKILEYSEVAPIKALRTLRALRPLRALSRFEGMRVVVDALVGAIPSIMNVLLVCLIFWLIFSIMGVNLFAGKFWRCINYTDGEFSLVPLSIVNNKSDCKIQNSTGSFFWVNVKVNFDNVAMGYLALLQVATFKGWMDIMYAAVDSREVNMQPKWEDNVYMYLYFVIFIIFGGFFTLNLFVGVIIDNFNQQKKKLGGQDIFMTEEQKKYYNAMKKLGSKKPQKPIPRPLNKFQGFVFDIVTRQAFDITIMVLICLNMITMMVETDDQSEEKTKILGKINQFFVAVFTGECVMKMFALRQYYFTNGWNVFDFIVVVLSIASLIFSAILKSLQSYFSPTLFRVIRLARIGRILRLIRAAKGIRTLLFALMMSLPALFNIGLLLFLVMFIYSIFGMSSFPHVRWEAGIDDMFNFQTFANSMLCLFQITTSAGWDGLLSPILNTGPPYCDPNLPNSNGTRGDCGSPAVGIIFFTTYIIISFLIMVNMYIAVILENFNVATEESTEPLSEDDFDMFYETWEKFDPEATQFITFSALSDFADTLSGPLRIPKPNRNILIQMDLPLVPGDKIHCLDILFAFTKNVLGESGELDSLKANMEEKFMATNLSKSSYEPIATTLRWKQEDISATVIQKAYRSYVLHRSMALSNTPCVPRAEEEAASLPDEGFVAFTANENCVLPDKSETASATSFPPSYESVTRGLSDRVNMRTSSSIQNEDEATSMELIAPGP

Row | SMILES | IC50
1 | COc1cc(OC(F)(F)F)ccc1Oc1ccc(C(F)(F)F)c(OCCC2CC2)c1C(=O)Nc1ccnc(C(N)=O)c1 [Compound 1028] | 0.59 µM
2 | COc1cc(OC(F)(F)F)ccc1Oc1cc(C2=CCC(C(F)(F)F)CC2)ccc1C(=O)Nc1ccnc(C(N)=O)c1 (stereo not shown) [Compound 1029, 4-[[2-[2-methoxy-4-(trifluoromethoxy)phenoxy]-4-[4-(trifluoromethyl)cyclohexen-1-yl]benzoyl]amino]pyridine-2-carboxamide] | 0.695 µM
3 | COc1cc(OC(F)(F)F)ccc1Oc1cc(C2=CCOC2)ccc1C(=O)Nc1ccnc(C(N)=O)c1 [Compound 1030] | 0.33 µM
4 | COc1cc(OC(F)(F)F)ccc1Oc1cc(C2=CCC(C(F)(F)F)CC2)ccc1C(=O)Nc1ccnc(C(N)=O)c1 (stereo not shown) [Compound 1031] | 2.05 µM
5 | COc1cc(OC(F)(F)F)ccc1Oc1cc(C2CCOC2)ccc1C(=O)Nc1ccnc(C(N)=O)c1 (stereo not shown) [Compound 1033] | 0.84 µM
6 | COc1cc(OC(F)(F)F)ccc1Oc1cc2c(c(F)c1C(=O)Nc1ccc(C(N)=O)nc1)OCCO2 [Compound 1034, 5-[[5-fluoro-7-[2-methoxy-4-(trifluoromethoxy)phenoxy]-2,3-dihydro-1,4-benzodioxine-6-carbonyl]amino]pyridine-2-carboxamide] | 0.16 µM
7 | COc1cc(OC(F)(F)F)ccc1Oc1cc2c(c(F)c1C(=O)Nc1ccnc(C(N)=O)c1)OCCO2 [Compound 1035] | 0.017 µM
8 | [2H]C([2H])([2H])Oc1cc(OC(F)(F)F)ccc1Oc1cc2c(cc1C(=O)Nc1ccnc(C(N)=O)c1)OCCO2 [Compound 1036, 4-[[6-[2-(trideuteriomethoxy)-4-(trifluoromethoxy)phenoxy]-2,3-dihydro-1,4-benzodioxine-7-carbonyl]amino]pyridine-2-carboxamide] | 1.75 µM

Continued, values first:

Row | IC50 | SMILES
9 | > 3 µM | [2H]C([2H])([2H])Oc1cc(OC(F)(F)F)ccc1Oc1cc2c(cc1C(=O)Nc1ccc(C(N)=O)nc1)OCCO2 [Compound 1037]
10 | 0.17 µM | COc1cc(OC(F)(F)F)ccc1Oc1cc(OC2C=C(F)C2)cc(C)c1C(=O)Nc1ccnc(C(N)=O)c1 (stereo not shown) [Compound 1038, 4-[[4-(3-fluorocyclobut-2-en-1-yl)oxy-2-[2-methoxy-4-(trifluoromethoxy)phenoxy]-6-methyl-benzoyl]amino]pyridine-2-carboxamide]
11 | > 3 µM | [2H]C([2H])([2H])Oc1cc(OC(F)(F)F)ccc1Oc1c(C)cc(C(F)(F)F)cc1C(=O)Nc1ccnc(C(N)=O)c1 [Compound 1039, 4-[[3-methyl-2-[2-(trideuteriomethoxy)-4-(trifluoromethoxy)phenoxy]-5-(trifluoromethyl)benzoyl]amino]pyridine-2-carboxamide]
12 | 0.006 µM | COc1c(Oc2cc3c(c(F)c2C(=O)Nc2ccnc(C(N)=O)c2)OCC(C)(C)O3)ccc(OC(F)(F)F)c1F [Compound 1040, 4-(5-fluoro-7-(3-fluoro-2-methoxy-4-(trifluoromethoxy)phenoxy)-2,2-dimethyl-2,3-dihydrobenzo[b][1,4]dioxine-6-carboxamido)picolinamide]
13 | 0.038 µM | COc1c(Oc2cc3c(c(F)c2C(=O)Nc2ccnc(C(N)=O)c2)OC(C)(C)CO3)ccc(OC(F)(F)F)c1F [Compound 1041, 4-(5-fluoro-7-(3-fluoro-2-methoxy-4-(trifluoromethoxy)phenoxy)-3,3-dimethyl-2,3-dihydrobenzo[b][1,4]dioxine-6-carboxamido)picolinamide]
